The values that follow come from patent US12202785B2 (Texas Tech University System, priority 2018, dated 2025).

Each structure is given as a SMILES string. Entries after “also recorded” stand apart in the source; their conditions may differ.

Data set [1] relates to Drinking In the Dark (DID) murine model of binge drinking. Nature of the data set: Drinking In the Dark (DID) murine model of binge drinking. The following applies: for binge ethanol consumption: figure legends FIG. 8C to 15C, dose not given. Format: in vivo, mice. The procedure: Using a standard Drinking In the Dark (DID) murine model of binge drinking, we tested the effect of 0, 25, 35, 50 and 100 mg/kg per os (p.o.) acetylated minocycline (derivative Y, or CMM1) vs control.

The next data set concerns E. coli. Nature of the data set: E. coli zone of inhibition (ZOI) and recovered colony forming units (CFU) per disk. The format is cell-based. As to conditions: dose response. The procedure:
Minocycline and two acetylated derivatives, CMM1 (B) and CMM2 (Y), were tested in a dose response manner for A) zone of inhibition (ZOI) and B) recovered colony forming units (CFU) per disk.

The test system of data set [2] is DBA/2J mice, alcohol withdrawal symptoms. Nature of the data set: Alcohol withdrawal, Handling Induced Convulsion scores. Format: in vivo. How it is done:
Female and male DBA/2J mice were tested with CMM1, 100 mg/kg p.o., at 2 hrs following 4 g/kg 20% ethanol in saline. Shown are the Handling Induced Convulsion scores, background subtracted and summed over 24 hours. […] Mean±SEM, n=5/group.

For data set [3], the system named is Large White x Landrace hybrid swine. The data set can be described thus: Two-bucket choice water vs 5% ethanol in swine. As to conditions: 10 mg/kg p.o., n=3/group.
For data set [4] the following is noted: cited from earlier work.
For the next data set, the system named is AUD traits. As to conditions: seven tetracyclines tested; earlier published work of the inventors; cited from earlier work.
Another data set deals with DID ethanol consumption. Nature of the data set: Drinking In the Dark (DID) ethanol consumption after ten-day GI microbiome sterilization. The format is in vivo. As to conditions: 100 mg/kg i.p.; ampicillin, neomycin, metronidazole, vancomycin pre-treatment vs none; n=7. How it is done:
A ten-day “sterilization” treatment with ampicillin, neomycin, metronidozale and vancomycin was used. Bedding was changed daily to avoid repopulation. DID was started on day 11 after one day of no metronidazole. Tigecycline was given at 100 mg/kg intraperitoneal (i.p.) n=7, mean±SEM.

The next data set has as its system DID consumption. Nature of the data set: DID ethanol consumption after intracerebroventricular (ICV) dosing. Format: in vivo. The following applies: 3 ul of 9 mg/ml icv 20 hrs prior to DID testing; n=9-11; p<0.01. The procedure:
To test the hypothesis that tigecycline works at the level of the CNS, rather than the PNS, 3 ul of drug (9 mg/ml) was given icy 20 hrs prior to DID testing. n=9-11, mean±SEM, **p<0.01.

With `CCCCOc1ccc(N(C)C)c2c1C(=O)C1=C(O)C3(O)C(=O)C(C(N)=O)=C(O)C(N(C)C)C3CC1C2` (stereo not shown) [Butyl Ether Minocycline, 10-Butoxy-4,7-bis-dimethylamino-3,12,12a-trihydroxy-1,11-dioxo-1,4,4a,5,5a,6,11,12a-octahydro-naphthacene-2-carboxylic acid amide], the binge ethanol consumption result in data set [1] was “reduction of binge ethanol consumption”.

For `CC(=O)NC(=O)c1c(OC(C)=O)c2c(c(N(C)C)c1OC(C)=O)CC1Cc3c(N(C)C)ccc(OC(C)=O)c3C(=O)C1=C2OC(C)=O` (stereo not shown) [CMM1, Acetic acid 3,10,12-triacetoxy-2-acetylcarbamoyl-4,7-bis-dimethylamino-11-oxo-5,5a,6,11-tetrahydro-naphthacen-1-yl ester], the “antibiotic activity (ZOI and recovered CFU per disk)” value in the data set on E. coli is on record as “loss of antibiotic activity even at high doses”. In addition, the “dose dependence of reduction of alcohol consumption” value in data set [1] (0, 25, 35, 50 and 100 mg/kg p.o.) is given as “dose-dependent response”. For the same molecule, the “ethanol consumption (drinking)” value in data set [1] (0, 25, 35, 50 and 100 mg/kg p.o. vs control, n=4/group, p=0.004) is on record as “significantly reduced drinking”. Further, the water consumption result in data set [1] (FIGS. 5A to 5D) is “not water consumption”. In addition, in data set [2] (100 mg/kg p.o.), the “efficacy on withdrawal compared with parent drug minocycline” value is “more effective than the parent drug” and the “efficacy on withdrawal, females vs males” value is listed as “more effective in females”. For the same molecule, in data set [2] (100 mg/kg p.o. at 2 hrs following 4 g/kg 20% ethanol, female and male, n=5/group), the “alcohol withdrawal symptoms (Handling Induced Convulsion scores, background subtracted, summed over 24 hours)” value is “reduced alcohol withdrawal symptoms”. Further, the “onset, peak and duration of withdrawal symptoms” value in data set [2] (100 mg/kg p.o., n=5/group) was “reduced onset, peak and duration of withdrawal symptoms”. In addition, in data set [3], the alcohol preference result was “reduced” and the total ethanol consumption entry is listed as “reduced”.

For `CC(=O)NC(=O)c1c(OC(C)=O)c2c(c(N(C)C)c1OC(C)=O)CC1Cc3c(N(C)C)ccc(OC(C)=O)c3C(=O)C1=C2O` (stereo not shown) [CMM2, Acetic acid 3,10-diacetoxy-2-acetylcarbamoyl-4,7-bis-dimethylamino-12-hydroxy-11-oxo-5,5a,6,11-tetrahydro-naphthacen-1-yl ester], the “antibiotic activity (ZOI and recovered CFU per disk)” value in the data set with E. coli is “loss of antibiotic activity even at high doses”.

For `CC(=O)NC(=O)c1c(O)cc2c(c1O)C(O)=C1C(=O)c3c(OC(C)=O)ccc(N(C)C)c3CC1C2` (stereo not shown) [De Methyl Diacetate Minocycline, Acetic acid 9-acetylcarbamoyl-4-dimethylamino-8,10,11-trihydroxy-12-oxo-5,5a,6,12-tetrahydro-naphthacen-1-yl ester], the binge ethanol consumption result in data set [1] is recorded as “reduction of binge ethanol consumption”.

In the case of `CN(C)[C@@H]1C(O)=C(C(N)=O)C(=O)[C@@]2(O)C(O)=C3C(=O)c4c(O)ccc(Cl)c4[C@@H](O)[C@H]3C[C@@H]12` [Demeclocycline], in data set [4], the LogD – broadly, lipophilicity at a set pH, counting ionised and neutral species – was −3.40; the LogP – broadly, the decadic logarithm of the partition coefficient of the neutral form, usually between octanol and water – was −1.07.

`C[C@H]1c2cccc(O)c2C(=O)C2=C(O)[C@]3(O)C(=O)C(C(N)=O)=C(O)[C@@H](N(C)C)[C@@H]3[C@@H](O)[C@@H]21` [Doxycycline]: in data set [4], the LogD is given as −3.29 and the LogP is recorded as −0.54. In addition, in the data set on AUD traits, the “efficacy against AUD traits” value is listed as “efficacious; also recorded: effective”.

On to `CCOc1ccc(N(C)C)c2c1C(=O)C1=C(O)C3(O)C(=O)C(C(N)=O)=C(O)C(N(C)C)C3CC1C2` (stereo not shown) [Ethyl Ether Minocycline, 4,7-Bis-dimethylamino-10-ethoxy-3,12,12a-trihydroxy-1,11-dioxo-1,4,4a,5,5a,6,11,12a-octahydro-naphthacene-2-carboxylic acid amide], for which the binge ethanol consumption result in data set [1] was “reduction of binge ethanol consumption”.

On to `COc1ccc(N(C)C)c2c1C(=O)C1=C(O)C3(O)C(=O)C(C(N)=O)=C(O)C(N(C)C)C3CC1C2` (stereo not shown) [Methyl Ether Minocycline, 4,7-Bis-dimethylamino-3,12,12a-trihydroxy-10-methoxy-1,11-dioxo-1,4,4a,5,5a,6,11,12a-octahydro-naphthacene-2-carboxylic acid amide], for which the binge ethanol consumption result in data set [1] is “reduction of binge ethanol consumption”.

With `COc1ccc(N(C)C)c2c1C(=O)C1=C(O)c3c(O)c(C(=O)NC(C)=O)c(O)c(N(C)C)c3CC1C2` (stereo not shown) [Methyl Ether N-Monoacetate Minocycline, 4,7-Bis-dimethylamino-1,3,12-trihydroxy-10-methoxy-11-oxo-5,5a,6,11-tetrahydro-naphthacene-2-carboxylic acid acetyl-amide], the binge ethanol consumption result in data set [1] is “reduction of binge ethanol consumption”.

For `COc1ccc(N(C)C)c2c1C(=O)C1=C(O)c3c(c(N(C)C)c(OC(C)=O)c(C(=O)NC(C)=O)c3OC(C)=O)CC1C2` (stereo not shown) [Methyl Ether Tri Acetate Minocycline, Acetic acid 4-acetoxy-3-acetylcarbamoyl-1,10-bis-dimethylamino-5-hydroxy-7-methoxy-6-oxo-6,11,11a,12-tetrahydro-naphthacen-2-yl ester], the binge ethanol consumption result in data set [1] is recorded as “reduction of binge ethanol consumption”.

As for `CN(C)c1ccc(O)c2c1CC1CC3C(N(C)C)C(O)=C(C(N)=O)C(=O)C3(O)C(O)=C1C2=O` (stereo not shown) [Minocycline, 4,7-Bis-dimethylamino-3,10,12,12a-tetrahydroxy-1,11-dioxo-1,4,4a,5,5a,6,11,12a-octahydro-naphthacene-2-carboxylic acid amide], the “antibiotic activity (ZOI and recovered CFU per disk)” value in the data set with E. coli is recorded as “eliminated E. coli”. Further, the “efficacy against AUD traits” value in the data set on AUD traits is reported as “efficacious; also recorded: effective”.

Take `CN(C)[C@@H]1C(=O)C(C(N)=O)=C(O)[C@@]2(O)C(=O)C3=C(O)c4c(O)cccc4[C@@](C)(O)[C@H]3[C@H](O)[C@@H]12` [Oxytetracycline]: in data set [4], the LogD is given as −4.25 and the LogP was −1.5.

Turning to `CC(=O)NC(=O)c1c(OC(C)=O)c2c(c(N(C)C)c1OC(C)=O)CC1Cc3c(N(C)C)ccc(OC(C)=O)c3C(=O)C1=C2OC(C)=O` (stereo not shown) [Penta Acetyl Minocycline, Acetic acid 3,10,12-triacetoxy-2-acetylcarbamoyl-4,7-bis-dimethylamino-11-oxo-5,5a,6,11-tetrahydro-naphthacen-1-yl ester], the binge ethanol consumption entry in data set [1] was “reduction of binge ethanol consumption”.

Regarding `CCCOc1ccc(N(C)C)c2c1C(=O)C1=C(O)C3(O)C(=O)C(C(N)=O)=C(O)C(N(C)C)C3CC1C2` (stereo not shown) [Propyl Ether Minocycline, 4,7-Bis-dimethylamino-3,12,12a-trihydroxy-1,11-dioxo-10-propoxy-1,4,4a,5,5a,6,11,12a-octahydro-naphthacene-2-carboxylic acid amide], in data set [1], the binge ethanol consumption entry is recorded as “reduction of binge ethanol consumption”.

As for `CC(=O)NC(=O)c1c(OC(C)=O)c2c(c(N(C)C)c1OC(C)=O)CC1Cc3c(N(C)C)ccc(OC(C)=O)c3C(=O)C1=C2O` (stereo not shown) [Tetra Acetyl Minocycline, Acetic acid 3,10-diacetoxy-2-acetylcarbamoyl-4,7-bis-dimethylamino-12-hydroxy-11-oxo-5,5a,6,11-tetrahydro-naphthacen-1-yl ester], the binge ethanol consumption entry in data set [1] is “reduction of binge ethanol consumption”.

As for `CN(C)c1cc(NC(=O)CNC(C)(C)C)c(O)c2c1C[C@H]1C[C@H]3[C@H](N(C)C)C(O)=C(C(N)=O)C(=O)[C@@]3(O)C(O)=C1C2=O` [Tigecycline], the “DID ethanol consumption / efficacy of tigecycline after gut sterilization” value with DID ethanol consumption is given as “No significant difference”. In addition, the DID ethanol consumption result in the data set on DID consumption is listed as “reduced DID consumption”. Also, in data set [4], the log distribution coefficient (LogD) is reported as −2.73 and the LogP is −1.30. Also, the “efficacy against AUD traits” value in the data set with AUD traits is “efficacious; also recorded: effective”.
